Data: publication PMC10384936, “Identification and Biological Characterization of the Pyrazolo[3,4-d]pyrimidine Derivative SI388 Active as Src Inhibitor” (Pharmaceuticals, 2023)

What was measured:
Format in all cases: cell-based
[1] = test system: GBMSC83 cells; assay: Cell death analysis, Annexin V-PI cytofluorimetry after IR, GBMSC83; settings: 1 µM pre-treatment 24 h, IR 10 Gy, 48 h after IR, vs control
Description: GBMSC83 cells were pretreated with 1 µM SI388 or 1 µM DAS, or DMSO as a control, for 24 h and then irradiated (10 Gy). After 48 h from IR, cytofluorimetric analysis of AnnexinV-PI staining was performed.
1 × 10^6 cells were analyzed for cell death 48 h from ionizing radiation (10 Gy) upon staining with Annexin V-APC-propidium iodide (PI) kit, according to manufacturer instructions (eBioscience™ Annexin V apoptosis detection kits, ThermoFisher Scientific, Waltham, MA, USA). Unstained samples were used as the control. CytoFLEX S (Beckman Coulter, Milan, Italy) instrument was used to quantify the double staining. Quality control was evaluated using CytoFLEX Daily QC Fluorospheres (Beckman Coulter). CytExpert version 2.2 software (Beckman Coulter) was used to analyze FCS files. Dead cells were graphed as fold change to control conditions.

[2] = test system: U251 cells; assay: Clonogenic assay, U251; settings: 10 nM, 1 µM, 25 µM for 24 h, colonies after 15 days
Description: (§1) To further characterize the ability of SI388 to inhibit tumor growth, we performed clonogenic assays using T98G and U251 cell lines. Cells were starved and treated for 24 h with increasing concentration (10 nM, 1 µM, and 25 µM) of SI388 or DAS. The ability of single cells to proliferate and produce colonies was evaluated after 15 days, both in control conditions (treated with DMSO) and after treatment with different Src inhibitors.
(§2) For colony formation, control and irradiated (5 Gy) cells were seeded at the concentration of 1000 cells/dish in 6-well culture plates and incubated at 37 °C, 5% CO2 for 10–15 days.
(§3) Crystal violet solution (10% (v/v) methanol and 0.5% Crystal Violet) was used to fix and stain colonies, upon 20 min incubation. The stained colonies (>50 cells) were counted under a microscope or using Image “Colonyarea” plugin. Data were expressed as the mean and SD of three independent experiments.

[3] = test system: T98G cells; assay: Clonogenic assay, T98G; settings: 10 nM, 1 µM, 25 µM for 24 h, colonies after 15 days
Description: as §1, §2, §3

[4] = test system: GBMSC83 cells; assay: Neurosphere formation, cell counting and sphere size, GBMSC83; settings: 1 µM, 72 h, vs control
Description: GBMSC83 cells were seeded at the density of 1 × 10^4 cells/well in a 96-well ultralow attachment plate, and the following day they were treated with SI388 1 µM or dasatinib 1 µM. After 72 h from treatment, cells were stained with Hoechst 33,342 (Thermo Fisher Scientific) and images were acquired with Fluorescence microscopy (ZEISS) and processed with Fiji version 2.3. Hoechst positive nuclei were counted by particle detection instrument of ComDet Plugin of Fiji. The bright fields were acquired and processed by Cell Profiler version 2.1.1 to measure spheres’ diameter and reported as the fold change from the control condition.

## Cc1nc(Nc2ncc(C(=O)Nc3c(C)cccc3Cl)s2)cc(N2CCN(CCO)CC2)n1 [dasatinib, reference compound]
[1]
  Percentage of cell death after IR (AnnexinV-PI): significantly increased the percentage of cell death
[2]
  Colony formation (cell growth and proliferation): impaired cell growth and proliferation in a dose-dependent manner
[3]
  Colony formation (cell growth and proliferation): impaired cell growth and proliferation in a dose-dependent manner
[4]
  Mean neurosphere diameter: overall reduced diameter of the spheres
  Number of cells per sphere: reduced average number of cells per sphere
